Test results taken from publication PMC6112376, “Comprehensive Analyses and Prioritization of Tox21 10K Chemicals Affecting Mitochondrial Function by in-Depth Mechanistic Studies” (Environmental Health Perspectives, 2018).
Where two headings read alike, the source gives them in different places.

Key:
HepG2 cells [1] = settings: HepG2 cells, single number from one experiment; for IC50: read-out: MMP assays IC50 (µM) HepG2
rat primary hepatocytes = test: MMP assay in rat primary hepatocytes; settings: for IC50: read-out: MMP assays IC50 (µM) Rat Hepatocytes
HepG2 cells [2] = settings: cited from earlier work
[3] = rat hepatocytes, mean ± SD of three experiments
[4] = read-out: MMP assays IC50 (µM) qHTS-HepG2
[5] = read-out: MMP assays IC50 (µM), qHTS-HepG2

Row | Compound | MMP assays IC50 (µM) HepG2 (HepG2 cells [1]) | MMP assays efficacy (%) HepG2 (HepG2 cells [1]) | MMP assays IC50 (µM) Rat Hepatocytes (rat primary hepatocytes; [3]) | MMP assays efficacy (%) Rat Hepatocytes (rat primary hepatocytes; [3]) | MMP assays efficacy (%) qHTS-HepG2 (HepG2 cells [2]) | IC50 (HepG2 cells [2]; [4]) | IC50 (rat primary hepatocytes; Rattus norvegicus, Hepatocyte) | IC50 (HepG2 cells [2]; [5]) | IC50 (HepG2 cells [1]) | IC50 (rat primary hepatocytes; [3])
1 | CN1CC(=O)NC1=NC(=O)Nc1cccc(Cl)c1 [Fenobam; McN-3377] | inactive | inactive | inactive | inactive | -70±17% | 25.9 ± 1.87 µM |  |  |  | 
2 | O=C1c2ccccc2Cc2ccccc21 [Anthrone] | inactive | inactive |  | -68±22% | -70±4% | 21.8 ± 9.9 µM | 42.4 ± 12 µM |  |  | 
3 | Cl.O=C1CSC2(CCN(CCCN3c4ccccc4Sc4ccc(Cl)cc43)CC2)N1 [Spiclomazine hydrochloride] | inactive | inactive | inactive | inactive | -107±11% |  |  | 34.8 ± 2.36 µM |  | 
4 | CCCCCCCC/C=C\CCCCCCCC(N)=O [(9Z)-Octadec-9-enamide] | inactive | inactive | inactive | inactive | -67±17% | 41.6 ± 7.16 µM |  |  |  | 
5 | Oc1ccc(Cl)cc1C1CCCC1 [Compound 4-Chloro-2-cyclopentylphenol] |  | -99% |  | -85±8% | -99±4% | 5.66 ± 1.93 µM |  |  | 6.31 µM | 33.6 ± 29.7 µM
6 | CCC(=O)O[C@]1(C(=O)CCl)[C@@H](C)C[C@H]2[C@@H]3CCC4=CC(=O)C=C[C@]4(C)[C@@]3(F)[C@@H](O)C[C@@]21C [Clobetasol propionate] | inactive | inactive |  | -39±3% | -98±19% | 24.6 ± 1.67 µM | 24.1 ± 9.54 µM |  |  | 
7 | O=C1c2ccccc2C(=O)C1c1ccc2ccccc2n1 [D&C Yellow 11] |  | -75% | inactive | inactive | -76±6% | 0.38 ± 0.13 µM |  |  | 0.44 µM | 
8 | CCCCCCCCCCCC[N+](C)(C)Cc1ccccc1.[Br-] [Benzyldodecyldimethylammonium bromide] |  |  |  | -44±3% | -97±11% | 11.4 ± 4.34 µM |  |  | 17.3 µM | 18.4 ± 1.5 µM
9 | CC(C)COC(=O)c1ccc(O)cc1 [Isobutylparaben] |  | -129% | inactive | inactive | -91±6% |  |  | 14.2 ± 1.82 µM | 14.1 µM | 
10 | O=C(O)Cc1cc(I)c(Oc2cc(I)c(O)c(I)c2)c(I)c1 [3,3',5,5'-Tetraiodothyroacetic acid] |  | -87% |  | -110±24% | -87±2% | 45.8 ± 2.99 µM |  |  | 39 µM | 26.1 ± 2.13 µM
11 | CCn1c2ccccc2c2cc(N)ccc21.Cl [3-Amino-9-ethylcarbazole hydrochloride] |  | -38% |  | -53±23% | -93±11% | 35.4 ± 24.5 µM |  |  | 14.1 µM | 56.2 µM
12 | COC(=O)C1=C(C)NC(C)=C(C(=O)O[C@@H]2CCCN(Cc3ccccc3)C2)[C@@H]1c1cccc([N+](=O)[O-])c1.Cl (racemic) [rac Benidipine hydrochloride] |  | -89% | inactive | inactive | -93±18% |  |  | 15 ± 3.18 µM | 30.8 µM | 
13 | O=C(c1ccc(O)c(O)c1)c1ccc(O)cc1O [2,3',4,4'-Tetrahydroxybenzophenone] |  |  |  | -69±32% | -89±13% | 7.39 ± 7.14 µM |  |  | 8.91 µM | 40.4 ± 8.45 µM
